From patent publication US20210283107A1, “Methods to Expand the Spectrum of Gram-Positive Antibiotics” (NORTH CAROLINA STATE UNIVERSITY, priority 2016, published 2021)
Where “and” joins values, the source holds several entries; their conditions need not be identical. Identical values can stand only once.

How the values were obtained:
AB5075 [1] = assay: H33342 accumulation assay (efflux); assay type: cell-based, Acinetobacter baumannii
Experimental: In addition to the evaluation of the relationship between compounds 1 and 4 and colistin, the impact of compound 1 on efflux was evaluated using AB5075 and a bisBenzimide H33342 trihydrochloride (H33342) accumulation assay. Using a procedure adapted from Coldham et al. (A 96-well plate fluorescence assay for assessment of cellular permeability and active efflux in Salmonella enterica serovar Typhimurium and Escherichia coli. J Antimicrob Chemother, 2010. 65(8): p. 1655-63) and Richmond et al. (Efflux in Acinetobacter baumannii can be determined by measuring accumulation of H33342 (bis-benzamide). J Antimicrob Chemother, 2013. 68(7): p. 1594-600), the effect of no treatment, a known inhibitor carbonyl cyanide-m-chlorophenyl hydrazone (CCCP), and compound 1 on efflux was analyzed over 30 minutes and in two different treatment variations. Fluorescence was read using excitation and emission filters of 355 and 460 nm, and the values were processed in excel. The first analysis was performed immediately after treating the bacteria with compound 1 at both 10 and 30 μM and CCCP at 25 μM.
The second analysis was performed after exposing the bacteria to compound 1 at 30 μM for 5-hours shaking at 37° C.

AB5075 [2] = assay: G. mellonella model infected with AB5075, survival; assay type: in vivo, Galleria mellonella
Experimental: Galleria mellonella larvae (Speedy Worm, Alexandria, Minn.) were used within ten days of shipment from the vendor. After reception of worms, larvae were kept in the dark at room temperature for at least 24 h before infection. Larvae weighing between 200 to 300 mg were used in the survival assay. Using a 10 μL glass syringe (Hamilton, Reno, Nev.) fitted with a 30 G needle (Exel International, St. Petersburg, Fl), 5 μL of the desired compound and concentration were injected into the last left proleg. After 2.5 h, a second 5 μL injection containing 6×10^5 CFU of Acinetobacter baumannii 5075 was injected into the second to last left proleg. Injected worms were left at room temperature in the dark while being assessed at 24 h intervals over 6 days. […] Experiment was repeated 7 times using 10 larvae per experimental group.

A. baumannii strain 5075 = assay: Time kill curve; assay type: cell-based, Acinetobacter baumannii; settings: for growth similar to the control after: AB5075, time kill curve; for Initial toxicity seen until (time point): AB5075 growth, time kill curve
Experimental: A. baumannii strain 5075 was grown in the presence of compound 1 at either 20 μM or 30 μM, and samples were plated at 2, 4, 6, 8, and 24 hour time points. Initial toxicity was seen until the 4-hour time point for 20 μM and 8-hour time point for 30 μM; however, growth was similar to the control after 6 hours for 20 μM and 24 hours for 30 μM.
A. baumannii 5075 was grown overnight (16 hours) in CAMHB at 37° C. with shaking. This culture was then subcultured to 5×10^5 CFU/mL in fresh CAMHB. The inoculated media was aliquoted (3 mL) into culture tubes, and the compound was added from 100 mM stock solutions. Untreated inoculated culture tubes served as the control, and tubes were incubated at 37° C. with shaking. Samples were taken at 2, 4, 6, 8, and 24 hour time points and were serially diluted in fresh CAMHB and plated on LB agar. Plates were incubated under stationary conditions overnight at 37° C. After incubation, colonies were enumerated and growth curves were constructed.

[3] = system: A. baumannii mutant AB522; assay: Dose dependent resistance suppression (antibiotic MIC with compound) in AB522; assay type: cell-based, Acinetobacter baumannii
Experimental: There was no notable reduction in antibiotic MIC observed with either compound and both strains 522 and 1310. […] Even at the highest concentration, no potentiation was observed.
Day Cultures (6 h) were subcultured to 5×10^5 CFU/mL in cation adjusted Mueller-Hinton broth (CAMHB). […] One milliliter of the resulting solution was aliquoted into a separate culture tube and was dosed with antibiotic so that the resulting concentration was the highest desirable concentration to be tested. Bacteria treated with antibiotic alone were used as a control. Row one of a 96-well plate was filled with 200 μL of the antibiotic/compound solution, and the remaining rows were filled with 100 μL of the remaining 4 mL bacterial subculture. The wells in row one were mixed five times before 100 μL was transferred to the following row (row two). Row two was then mixed five times, and 100 μL was transferred to row three. This process was repeated until the second to last row had been reached. The last row is left unexposed to antibiotic in order to serve as a negative control. The antibiotic only treated bacteria was plated by aliquoting 200 μL of the treated bacteria into row one and filling the remaining rows with untreated bacteria from the original bacteria subculture. The rows were mixed in the same way as described above. Plates were covered with Glad Press n'Seal and were incubated under stationary conditions at 37° C. for 16 hours. MIC values were recorded as the lowest concentration at which no bacterial growth was observed. Fold reductions were determined by comparison of the compound treated wells with the antibiotic only treated control wells.

Nc1nc(-c2ccc(NC(=O)c3cc(Cl)cc(Cl)c3)cc2)c[nH]1 [Compound 1] was tested, and the “H33342 accumulation, fluorescence at 355 and 460 nm” value (shortened to “H33342 accumulation, fluorescence”) (AB5075 [1]; 10 μM compound, immediately following exposure, time 0 minutes) was 14,084.3 ± 2,839.3, the “H33342 accumulation, fluorescence” value (AB5075 [1]; 10 μM compound, immediately following exposure, time 10 minutes) was 12,812.4 ± 2,718.2 and the “H33342 accumulation, fluorescence” value (AB5075 [1]; 10 μM compound, immediately following exposure, time 20 minutes) was 11,627.8 ± 3,119. For the same molecule, the “H33342 accumulation, fluorescence” value (AB5075 [1]; 10 μM compound, immediately following exposure, time 30 minutes) was 12,147.8 ± 2,742.8, the “H33342 accumulation, fluorescence” value (AB5075 [1]; 30 μM compound, following exposure for 5 hours, time 0 minutes) was 12,226.7 ± 4,671.7 and the “H33342 accumulation, fluorescence” value (AB5075 [1]; 30 μM compound, following exposure for 5 hours, time 10 minutes) was 15,247 ± 5,499.3. The “H33342 accumulation, fluorescence” value (AB5075 [1]; 30 μM compound, following exposure for 5 hours, time 20 minutes) was 25,603.1 ± 5,212.9, the “H33342 accumulation, fluorescence” value (AB5075 [1]; 30 μM compound, following exposure for 5 hours, time 30 minutes) was 33,441.1 ± 3,260.3 and the “H33342 accumulation, fluorescence” value (AB5075 [1]; 30 μM compound, immediately following exposure, time 0 minutes) was 21,152.2 ± 5,161.7. The “H33342 accumulation, fluorescence” value (AB5075 [1]; 30 μM compound, immediately following exposure, time 10 minutes) was 21,651 ± 8,731.7, the “H33342 accumulation, fluorescence” value (AB5075 [1]; 30 μM compound, immediately following exposure, time 20 minutes) was 19,748.3 ± 9,182.4 and the “H33342 accumulation, fluorescence” value (AB5075 [1]; 30 μM compound, immediately following exposure, time 30 minutes) was 19,562.4 ± 9,574. For the same molecule, the “H33342 fluorescence versus untreated” value (AB5075 [1]; after exposure to compound at 30 μM for 5 hours) was “comparable fluorescence values”, the “change in H33342 fluorescence over 30 minutes” value (AB5075 [1]; immediately after treating, compound 1 at both 10 and 30 μM, CCCP at 25 μM) was “a decrease in fluorescence” and the “survival rate after 6 days” value (AB5075 [2]; combination treatment of clarithromycin (25 mg/kg) and compound 1 (100 mg/kg)) was 42%. The “survival after 6 days” value (AB5075 [2]; compound 1 alone at 100 mg/kg) was 5%, the “growth similar to the control after” value (A. baumannii strain 5075; compound alone at 20 μM) was 6 h and the “Initial toxicity seen until (time point)” value (A. baumannii strain 5075; compound alone at 20 μM) was 4 h. The “growth similar to the control after” value (A. baumannii strain 5075; compound alone at 30 μM) was 24 h, the “Initial toxicity seen until (time point)” value (A. baumannii strain 5075; compound alone at 30 μM) was 8 h and the “Azithromycin MIC” value ([3]; compound Conc. Tested 2 (μM)) was 8 µg/mL and 4 µg/mL. The “Clarithromycin MIC” value ([3]; compound Conc. Tested 2 (μM)) was 1 µg/mL, the “Erythromycin MIC” value ([3]; compound Conc. Tested 2 (μM)) was 2 µg/mL and the “Vancomycin MIC” value ([3]; compound Conc. Tested 2 (μM)) was 64 µg/mL. The “Azithromycin MIC” value ([3]; compound Conc. Tested 3 (μM)) was 4 µg/mL and 8 µg/mL, the “Clarithromycin MIC” value ([3]; compound Conc. Tested 3 (μM)) was 1 µg/mL and the “Erythromycin MIC” value ([3]; compound Conc. Tested 3 (μM)) was 2 µg/mL and 4 µg/mL. The “Vancomycin MIC” value ([3]; compound Conc. Tested 3 (μM)) was 64 µg/mL, the “Azithromycin MIC” value ([3]; compound Conc. Tested 4 (μM)) was 4 µg/mL and the “Clarithromycin MIC” value ([3]; compound Conc. Tested 4 (μM)) was 1 µg/mL. The “Erythromycin MIC” value ([3]; compound Conc. Tested 4 (μM)) was 4 µg/mL and 2 µg/mL, the “Vancomycin MIC” value ([3]; compound Conc. Tested 4 (μM)) was 32 µg/mL and the “Azithromycin MIC” value ([3]; compound Conc. Tested 5 (μM)) was 4 µg/mL. The “Clarithromycin MIC” value ([3]; compound Conc. Tested 5 (μM)) was 0.5 µg/mL, the “Erythromycin MIC” value ([3]; compound Conc. Tested 5 (μM)) was 2 µg/mL and the “Vancomycin MIC” value ([3]; compound Conc. Tested 5 (μM)) was 32 µg/mL.
